Where two headings read alike, the source gives them in different places.
Legend:
decay causing fungi = assay: Efficacy in the glue-line under alkaline conditions (PF type glues); conditions: alkaline conditions such as PF type glues
[1] = Stability under the conditions of the glue-line treatment; type: physicochemical
[2] = cited from earlier work
Tyromyces palustris = assay: Standard rot trial (Japan Wood Preservers Association Standard Test procedure) on glueline-treated plywood; type: cell-based; conditions: phenol formaldehyde glue
[3] = use rate 100 gram a.i./m^3 in the glueline of plywood from pinus spp
[4] = use rate 200 gram a.i./m^3 in the glueline of plywood from pinus spp
[5] = use rate 400 gram a.i./m^3 in the glueline of plywood from pinus spp
[6] = use rate 800 gram a.i./m^3 in the glueline of plywood from pinus spp

SMILES | Efficacy relative to triadimefon (decay causing fungi) | Stability under the conditions of the glue-line treatment [1] | Use rate range (agricultural uses) [2] | Efficacy against target organism (expressed as weight loss percent in a standard rot trial) (Tyromyces palustris; use rate 80 gram a.i./m^3 in the glueline of plywood from pinus spp) [%] | Efficacy against target organism (expressed as weight loss percent in a standard rot trial) (Tyromyces palustris; use rate 160 gram a.i./m^3 in the glueline of plywood from pinus spp) [%] | Efficacy against target organism (expressed as weight loss percent in a standard rot trial) (Tyromyces palustris; use rate 320 gram a.i./m^3 in the glueline of plywood from pinus spp) [%] | Efficacy against target organism (expressed as weight loss percent in a standard rot trial) (Tyromyces palustris; use rate 640 gram a.i./m^3 in the glueline of plywood from pinus spp) [%] | Stability under the conditions of the glue-line treatment ([1]; glue-line treatment) | Efficacy against target organism (expressed as weight loss percent in a standard rot trial) (Tyromyces palustris; [3]) [%] | Efficacy against target organism (expressed as weight loss percent in a standard rot trial) (Tyromyces palustris; [4]) [%] | Efficacy against target organism (expressed as weight loss percent in a standard rot trial) (Tyromyces palustris; [5]) [%] | Efficacy against target organism (expressed as weight loss percent in a standard rot trial) (Tyromyces palustris; [6]) [%]
CC(C)(C)C(O)C(Oc1ccc(Cl)cc1)n1cncn1 (racemic) [triadimenol, (±) 1-(4-chlorophenoxy)-3,3-dimethyl-1-(1H-1,2,4-triazol-1-yl)butan-2-ol] | same efficacy as triadimefon | stable | 125–500 g/ha | – | – | – | – | – | – | – | – | –
CC(C)(C)C(O)(CCc1ccc(Cl)cc1)Cn1cncn1 (stereo not shown) [tebuconazole] | – | – | 100–250 g/ha | 9.2 | 20.9 | 6.3 | 18.5 | – | – | – | – | –
CC(C)(C)C(=O)C(Oc1ccc(Cl)cc1)n1cncn1 (racemic) [triadimefon, (±)1-(4-chlorophenoxy)-3,3-dimethyl-1-(1H-1,2,4-triazol-1-yl)butan-2-one] | – | – | 125–500 g/ha | – | – | – | – | stable | 3.7 | 0.5 | 0.9 | 1.4
CCCC1COC(Cn2cncn2)(c2ccc(Cl)cc2Cl)O1 (stereo not shown) [propiconazole] | – | – | 100–150 g/ha | – | – | – | – | – | 20.5 | 7.6 | 21.4 | 1.8

Source: patent US7691444B2, “Preservatives for wood-based products” (LANXESS Deutschland GmbH, priority 2002, dated 2010)
